Values quoted from earlier work in US10112976B2, “Process for the production of D-arginyl-2,6-dimethyl-L-tyrosyl-L-lysyl-L-phenylalaninamide” (Flamma S.P.A., priority 2014, dated 2018).
Non-standard residues stand in square brackets, D forms with d. Residues, ends and D or L forms follow the SMILES beside them. Dmt = Cc1cc(O)cc(C)c1C[C@H](N)C(=O)O

Tests used:
[1] = tested on: inner mitochondrial membrane
[2] = tested on: SH—SY5Y neuronal cell line; conditions: <1 nM; SH—SY5Y cells
mu-opioid receptor = mu-opioid receptor (Homo sapiens, UniProt P35372); conditions: as stated for WO 2013/086020, WO 2004/070054, WO 2005/072295
Sequence of mu-opioid receptor (P35372 whole entry): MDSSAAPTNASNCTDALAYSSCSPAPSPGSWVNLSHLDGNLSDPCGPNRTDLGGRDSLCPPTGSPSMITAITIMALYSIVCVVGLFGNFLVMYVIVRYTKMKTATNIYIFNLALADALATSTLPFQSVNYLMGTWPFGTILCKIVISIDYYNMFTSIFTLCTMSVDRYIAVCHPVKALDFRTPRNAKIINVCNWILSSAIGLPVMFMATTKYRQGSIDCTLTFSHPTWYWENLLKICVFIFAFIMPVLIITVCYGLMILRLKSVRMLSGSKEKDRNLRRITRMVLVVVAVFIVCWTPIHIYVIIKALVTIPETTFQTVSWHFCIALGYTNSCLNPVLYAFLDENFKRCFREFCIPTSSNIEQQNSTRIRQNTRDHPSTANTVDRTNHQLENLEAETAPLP

[3] = tested on: G93A mouse model of amyotrophic lateral sclerosis; conditions: 5 mg/kg/day i.p. starting at 30 days of age
[4] = tested on: rats with unilateral ureteral obstruction; conditions: intraperitoneal 1 and 3 mg/kg, 1 day prior to obstruction and every day for 14 days
mouse pancreatic islets = conditions: 3 mg/kg i.p. qd for 2 weeks
N2A neuronal cell line = conditions: <1 nM; N2A cells

In the case of `Cc1cc(O)cc(C)c1C[C@H](NC(=O)[C@H](N)CCCNC(=N)N)C(=O)N[C@@H](CCCCN)C(=O)N[C@@H](Cc1ccccc1)C(N)=O` [D-Arginyl-2,6-dimethyl-L-tyrosyl-L-lysyl-L-phenylalaninamide] (H-[dR][Dmt]KF-NH2), the antioxidant activity [1] is given as “showed antioxidant activity”, the “intracellular reactive oxygen species” value [2] is given as “significantly reduced” and the mitochondrial potential [2] is given as “increased”. For the same compound, the tBHP-induced apoptosis [2] was “prevented”, the “mu-opioid receptor agonist activity” value (mu-opioid receptor) was “does not have mu-opioid receptor agonist activity” and the disease onset [3] was “significant delay”. For the same compound, the interstitial fibrosis [4] was “significantly decreased”, the macrophage infiltration [4] was “significantly decreased” and the tubular damage [4] was “significantly decreased”. For the same compound, the “apoptosis in pancreatic islets caused by streptozotocin” value (mouse pancreatic islets) was “prevented”, the “insulin reduction in pancreatic islets caused by streptozotocin” value (mouse pancreatic islets) was “prevented” and the “intracellular reactive oxygen species” value (N2A neuronal cell line) was “significantly reduced”. For the same compound, the mitochondrial potential (N2A neuronal cell line) was “increased” and the tBHP-induced apoptosis (N2A neuronal cell line) was “prevented”.
